Test [1] deals with prototrophic yeast strain (CEN.PK113-7D). The experiment in a line: Propidium iodide fluorescence-based CLS method in yeast (incl. high-throughput screening).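 On PI intensity: untreated reference is eight DMSO and water control wells per plate.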 The note with it: for Yeast CLS increase: Yes/No call of the screen. Type of test: cell-based, Saccharomyces cerevisiae. As for the experimental part: Yeast strain was recovered from frozen glycerol stock at 30° C. on YPD agar medium. Yeast was left to propagate in SD medium overnight at 30° C. with shaking at 220 revolutions per minute (rpm). Cells propagated overnight were diluted to a starting optical density at 600 nm (OD600) of approximately 0.2 in fresh SD medium to begin the chronological lifespan (CLS) experiments.
(§1) CLS experiments were performed in 96-well plates with 200 μL yeast culture. Cellular inoculums were transferred into 96-well plates containing serially double-diluted concentrations (0 to 10 nM) of rapamycin. Cellular inoculum was transferred into 96-well plates containing serially double-diluted concentrations (0 to 8 mM) of 2,5-anhydro-D-mannitol, D-fructose, D-mannitol, D-maltose, and D-sorbitol in SD medium. Cells were incubated at 30° C., and the growth was measured at different time points. […] Cell survival was quantified at various age time points by three different approaches: (i) PI fluorescence-based method, (ii) outgrowth in YPD liquid medium, and (iii) spotting assay (FIG. 1).
Yeast cells (40 μL) from different age time points were transferred into a second 96-well plate (different to the 96-well plate in which the CLS analysis as outlined above was performed). Cells were washed and incubated in 100 μL 1×phosphate buffered saline (PBS) with propidium iodide (PI) (5 μg/mL) for 15 minutes in the dark. Positive and negative control samples were included for quantitative analysis. Positive control (cells boiled at 100° C. for 15 minutes) was PI-stained and processed in the same 96-well plate. Samples without PI-stained cells served as the negative control. After incubation, cells were washed and resuspended in 100 μL PBS. The fluorescence reading of the samples (excitation and emission wavelengths at 535 nm and 617 nm, respectively) and OD600 were measured with a microplate reader (BioTek, Winooski, Vermont, United States). The fluorescence intensity of each sample was normalized with OD600. The background fluorescence signal of the unstained negative sample was subtracted from the normalized fluorescence intensity of each sample. The obtained fluorescence intensity of the positive control (boiled dead cells) was considered 0% cell survival. Cell death was validated by allowing the boiled dead cells to grow in medium. Cell survival at different age time points of samples were calculated by normalizing the fluorescence intensity with positive control sample (boiled cells).
High-throughput screening of various chemicals was tested using the same protocol for the propidium iodide fluorescence-based method as described above. The prototrophic yeast strain (CEN.PK113-7D) was grown in the synthetic defined medium with different chemical reagents at their respective single testing concentration (Table 1) in addition to eight replicates of DMSO and water controls in 96-well plates at 30° C.

The test system is the same in test [2]. Description: Yeast outgrowth in YPD liquid medium (CLS of aged cells). In kind it is cell-based, Saccharomyces cerevisiae. The note with it: for Outgrowth: age point day 14; for aged cell survival in yeast: various concentrations, outgrowth relative to Day 2 (FIGS. 22A to D). As for the experimental part: as §1
Outgrowth (OD600) of aged cells was measured by the microplate reader. Quantification of cell survival for each age point was determined as relative to Day 1 (considered 100% cell survival). This quantification was performed by using the formula,
[formula] • where OutgrowthDay n refers to the OD600 nm absorbance reading recorded on a specific day, OutgrowthDay 1 refers to the OD600 nm absorbance reading recorded on the first day where 100% cell survival is assumed.
The CLS of the aged cells was further determined by the yeast outgrowth in YPD liquid medium method as described above. […] At chronological age point day 14, 3-μL of culture were transferred to a second 96-well plate containing 200 μL YPD medium.

Where [3] appears, read: concentration tested 100 μM, solvent DMSO or water, chronological age point Day 7 (72 h growth = Day 1), lower = more survival.
Where [4] appears, read: concentration tested 100 μM, OD600 nm after 24 h in YPD at 30° C.

Residues, ends and D or L forms follow the SMILES beside them.

Results on 32 molecules are retold here after patent US20250161338A1, “Compounds for Anti-aging Intervention” (AGENCY FOR SCIENCE, TECHNOLOGY AND RESEARCH, priority 2022, published 2025).

Take `O=C(O)Cc1ccccc1Nc1c(Cl)cccc1Cl` [Diclofenac (Sodium), reference compound]: the “Yeast CLS increase” value in test [1] (concentration tested 100 μM) was “No”. Moreover, in test [1] (setting [3]), the PI intensity was 79,704.3. In test [2] (setting [4]), the Outgrowth is 0.2.
For `COCCCOc1cc(C[C@@H](C[C@H](N)[C@@H](O)C[C@H](C(=O)NCC(C)(C)C(N)=O)C(C)C)C(C)C)ccc1OC.COCCCOc1cc(C[C@@H](C[C@H](N)[C@@H](O)C[C@H](C(=O)NCC(C)(C)C(N)=O)C(C)C)C(C)C)ccc1OC.O=C(O)/C=C/C(=O)O` [Aliskiren (hemiumarate), reference compound], in that order: “No”, 73,607.3 and 0.1.
The corresponding values for `O=c1cc(O)cc(/C=C/c2ccc(O)c(O)c2)o1` [Hispidin] are “No”, 67,098.8 and 0.1.
For `C[Se]CC[C@H](N)C(=O)O` [L-SelenoMethionine], in that order: “Yes”, 31,240.0 and 1.2.
As to `CC[C@H](C)[C@@H]1NC(=O)[C@@H]2CCCN2C(=O)[C@@H]2CCCN2C(=O)[C@@H]2CCCN2C(=O)[C@H](CC(C)C)NC(=O)CNC(=O)CNC(=O)[C@H](Cc2ccccc2)NC1=O` [Heterophyllin B] (cyclo(FGGLPPPI)), in test [1] (concentration tested 100 μM), the “Yeast CLS increase” value is on record as “No”. The PI intensity in test [1] (setting [3]) was 61,587.8. The same molecule gave an Outgrowth in test [2] (setting [4]) of 0.2.
With Melanin, the “Yeast CLS increase” value in test [1] (concentration tested 100 μM) is “Yes”. For the same molecule, the PI intensity in test [1] (setting [3]) is listed as 39,360.1. This molecule displayed an Outgrowth in test [2] (setting [4]) of 1.0.
Turning to `C=C1CC[C@H](O)C/C1=C/C=C1\CCC[C@]2(C)[C@@H]([C@H](C)CCCC(C)(C)O)CC[C@@H]12` [Calcifediol, reference compound], the “Yeast CLS increase” value in test [1] (concentration tested 100 μM) is on record as “No”. For the same molecule, the PI intensity in test [1] (setting [3]) is given as 60,747.4. In test [2] (setting [4]), this molecule displayed an Outgrowth of 0.2.
On to `Cc1ccc(C(C)C)c(O)c1` [Thymol], for which, in test [1] (concentration tested 100 μM), the “Yeast CLS increase” value is on record as “No”. Moreover, the PI intensity in test [1] (setting [3]) was 61,503.8. This molecule also yielded an Outgrowth in test [2] (setting [4]) of 0.1.
For `C=C1C(=O)O[C@@H]2C[C@@]3(C)CCCC(=C)[C@@H]3C[C@H]12` [Isoalantolactone], in that order: “No”, 94,566.8 and 0.1.
For `C[C@@H](O)[C@H]1C(=O)N2C(C(=O)[O-])=C(SC3Cn4cnc[n+]4C3)[C@H](C)[C@H]12` (stereo partly drawn) [Biapenem, reference compound], in that order: “No”, 71,409.3 and 0.1.
For `Cc1ccc(C(C)C)cc2c(C)ccc1-2` [Guaiazulene], in that order: “No”, 58,776.1 and 0.1.
For `CC1(C)C[C@@H]1C(=O)N/C(=C\CCCCSC[C@H](N)C(=O)O)C(=O)O` [Cilastatin, reference compound], the “Yeast CLS increase” value in test [1] (concentration tested 100 μM) is “No”. Also, the PI intensity in test [1] (setting [3]) is 55,728.9. The same molecule yielded an Outgrowth in test [2] (setting [4]) of 0.1.
Regarding `CN(C)c1nc2c(ncn2[C@@H]2O[C@H](CO)[C@@H](O)[C@H]2O)c(=O)[nH]1` [N2,N2-Dimethylguanosine], in test [1] (concentration tested 100 μM), the “Yeast CLS increase” value was “No”. Also, in test [1] (setting [3]), the PI intensity is 65,619.9. Further, the Outgrowth in test [2] (setting [4]) was found to be 0.1.
The corresponding values for `COc1cc2c(cc1OC)-c1cc3ccc4c(c3c[n+]1CC2)OCO4.[Cl-]` [Epiberberine (chloride)] are “Yes”, 38,027.2 and 1.3.
As for `Cl.N[C@H]1C(O)O[C@H](CO)[C@@H](O)[C@@H]1O` (stereo partly drawn) [Glucosamine (hydrochloride)], the “Yeast CLS increase” value in test [1] (concentration tested 100 μM) is “No”. Moreover, the PI intensity in test [1] (setting [3]) was 65,905.5. The molecule also gave an Outgrowth in test [2] (setting [4]) of 0.1.
Regarding `CO[C@H]1C[C@@H]2CC[C@@H](C)[C@@](O)(O2)C(=O)C(=O)N2CCCC[C@H]2C(=O)O[C@H]([C@H](C)C[C@@H]2CC[C@@H](O)[C@H](OC)C2)CC(=O)[C@H](C)/C=C(\C)[C@@H](O)[C@@H](OC)C(=O)[C@H](C)C[C@H](C)/C=C/C=C/C=C/1C` [Rapamycin, reference compound], in test [1] (setting [3]), the PI intensity was 21,460.5. The same molecule had an Outgrowth in test [2] (setting [4]) of 1.3.
Take `Cl.N[C@@H](CS)C(=O)O.O` [L-Cysteine (hydrochloride hydrate)]: the “Yeast CLS increase” value in test [1] (concentration tested 100 μM) is “No”. Moreover, in test [1] (setting [3]), the PI intensity is on record as 69,216.4. The molecule further gave an Outgrowth in test [2] (setting [4]) of 0.1.
The corresponding values for `CC(=O)O[C@H]1CC[C@H]2[C@@H]3CCc4cc(O)ccc4[C@H]3CC[C@]12C` [β-Estradiol 17-acetate] are “Yes”, 34,621.0 and 0.5.
Amarogentin: the “Yeast CLS increase” value in test [1] (concentration tested 100 μM) is reported as “No”. For the same molecule, the PI intensity in test [1] (setting [3]) was 70,083.5. The molecule also had an Outgrowth in test [2] (setting [4]) of 0.1.
The corresponding values for Escin are “No”, 70,495.1 and 0.1.
For “Heparin (sodium salt) (MW 15 kDa) [reference compound]”, in test [1] (concentration tested 30 μg/mL), the “Yeast CLS increase” value is on record as “No”. Also, the PI intensity in test [1] (concentration tested 30 μg/mL, solvent water, age point Day 7) is 64,969.0. Moreover, the Outgrowth in test [2] (concentration tested 30 μg/mL, OD600 nm after 24 h in YPD) was found to be 0.1.
Take `C[Se]CC[C@H](N)C(=O)O` [Selenomethionine]: in test [1] (concentration tested 100 μM), the “Yeast CLS increase” value is “Yes”. Besides, the PI intensity in test [1] (setting [3]) is listed as 29,837.8. In test [2] (setting [4]), this molecule returned an Outgrowth of 1.2.
For `O=[N+]([O-])C(Br)(CO)CO` [Bronopol], in that order: “No”, 79,284.9 and 0.1.
For `COc1cc2c(c(OC)c1OC)-c1c(cc3c(c1OC)OCO3)C[C@H](C)[C@@](C)(O)C2` [Schisandrol B], in that order: “No”, 80,051.7 and 0.1.
For “Vincristine (sulfate) [reference compound]”, in that order: “No”, 62,812.1 and 0.1.
On to “Estramustine (phosphate sodium) [reference compound]”, for which, in test [1] (concentration tested 100 μM), the “Yeast CLS increase” value was “No”. Also, the PI intensity in test [1] (setting [3]) was 77,514.0. The same molecule came in with an Outgrowth in test [2] (setting [4]) of 0.2.
Consider `CC(C)c1c(C(=O)Nc2ccccc2)c(-c2ccccc2)c(-c2ccc(F)cc2)n1CC[C@@H](O)C[C@@H](O)CC(=O)O` [atorvastatin, reference compound], for which the “aged cell survival in yeast” value in test [2] is listed as “survived longer as compared to those without treatment”.
In the case of `CC(CCC(=O)NCC(=O)O)C1CCC2C3CCC4CC(O)CCC4(C)C3CC(O)C12C` (stereo not drawn) [Glycodeoxycholic Acid], the PI intensity in test [1] (setting [3]) is 68,981.6.
Turning to `O=c1[nH]cc(F)c(=O)[nH]1` [5-fluorouracil, reference compound], the “aged cell survival in yeast” value in test [2] is “survived longer as compared to those without treatment”.
Same read-out and setting: for `CN(Cc1cnc2nc(N)nc(N)c2n1)c1ccc(C(=O)N[C@@H](CCC(=O)O)C(=O)O)cc1` [methotrexate, reference compound] the value was “survived longer as compared to those without treatment”.
As for `COc1c(O)cc(O)c2c(=O)cc(-c3ccccc3)oc12` [Wogonin], the “Yeast CLS increase” value in test [1] (concentration tested 100 μM) was “No”. Further, the PI intensity in test [1] (setting [3]) is 76,348.2.
Take hemin [reference compound]: the “aged cell survival in yeast” value in test [2] is given as “survived longer as compared to those without treatment”.
